# Test results taken from patent US20220257592A1, “METHODS OF TREATING CANCER” (HOFFMANN-LA ROCHE INC., priority 2019, published 2022).
# Marks after values point to notes of the source that are not given here.
# Assay: Clinical trial safety, integrated analysis of ALKA, STARTRK-1, STARTRK-2, STARTRK-NG (N=504)
# Excerpt: The following categories of frequency have been used: very common ≥1/10, common (≥1/100 to <1/10), uncommon (≥1/1,000 to <1/100), rare (≥1/10,000 to <1/1000), very rare (<1/10,000).
# [1] = patients less than 65 years old
smiles,measurement,setting,value
"CN1CCN(c2ccc(C(=O)Nc3n[nH]c4ccc(Cc5cc(F)cc(F)c5)cc34)c(NC3CCOCC3)c2)CC1 [Entrectinib, N-[5-(3,5-difluorobenzyl)-1H-indazol-3-yl]-4-(4-methyl-piperazin-1-yl)-2-(tetrahydro-pyran-4-ylamino)-benzamide]","Myalgia, Frequency Category (All Grades)",N = 504,very common (very common ≥1/10)
same,"Myalgia, Grade ≥3",N = 504,0.6%
same,"Nausea, All Grades",N = 504,32.1%
same,"Nausea, Frequency Category (All Grades)",N = 504,very common (very common ≥1/10)
same,"Nausea, Grade ≥3",N = 504,0.8%
same,"Neutropenia, All Grades",N = 504,11.3%
same,"Neutropenia, Frequency Category (All Grades)",N = 504,very common (very common ≥1/10)
same,"Neutropenia, Grade ≥3",N = 504,4.4%
same,"Pain, All Grades",N = 504,24.4%
same,"Pain, Frequency Category (All Grades)",N = 504,very common (very common ≥1/10)
same,"Pain, Grade ≥3",N = 504,1.6%
same,"Peripheral Sensory Neuropathy, Frequency Category (All Grades)",N = 504,very common (very common ≥1/10)
same,"Peripheral sensory neuropathy, All Grades",N = 504,15.7%
same,"Peripheral sensory neuropathy, Grade ≥3",N = 504,1.0%
same,"Pyrexia, All Grades",N = 504,20.0%
same,"Pyrexia, Frequency Category (All Grades)",N = 504,very common (very common ≥1/10)
same,"Pyrexia, Grade ≥3",N = 504,0.8%
same,"Rash, All Grades",N = 504,11.5%
same,"Rash, Frequency Category (All Grades)",N = 504,very common (very common ≥1/10)
same,"Rash, Grade ≥3",N = 504,1.4%
same,"Sleep disturbances, All Grades",N = 504,13.5%
same,"Sleep disturbances, Frequency Category (All Grades)",N = 504,very common (very common ≥1/10)
same,"Sleep disturbances, Grade ≥3",N = 504,0.4%
same,"Syncope, All Grades",N = 504,4.6%
same,"Syncope, Frequency Category (All Grades)",N = 504,common (common (≥1/100 to <1/10))
same,"Syncope, Grade ≥3",N = 504,3.0%
same,"Tumor lysis syndrome, All Grades",N = 504,0.2%
same,"Tumor lysis syndrome, Frequency Category (All Grades)",N = 504,"uncommon (uncommon (≥1/1,000 to <1/100))"
same,"Urinary tract infection, All Grades",N = 504,12.7%
same,"Urinary tract infection, Frequency Category (All Grades)",N = 504,very common (very common ≥1/10)
same,"Urinary tract infection, Grade ≥3",N = 504,2.6%
same,"Vision Blurred, Frequency Category (All Grades)",N = 504,very common (very common ≥1/10)
same,"Vision Blurred, Grade ≥3",N = 504,0.4%
same,"Vomiting, All Grades",N = 504,23.2%
same,"Vomiting, Frequency Category (All Grades)",N = 504,very common (very common ≥1/10)
same,"Vomiting, Grade ≥3",N = 504,1.2%
same,"Weight increased, All Grades",N = 504,26.4%
same,"Weight increased, Frequency Category (All Grades)",N = 504,very common (very common ≥1/10)
same,"Weight increased, Grade ≥3",N = 504,7.3%
same,"Ataxia, All Grades","N = 504, ataxia, balance disorder, gait disturbances",15.7%
same,"Vision Blurred, All Grades","N = 504, diplopia, vision blurred, visual impairment",11.9%
same,Entrectinib interrupted due to fractures,adult patients,36.0%
same,Grade 3 or 4 bone fractures,adult patients,1.9%
same,Grade 3 or 4 headache,adult patients,0.6%
same,Grade 3 or 4 neutropenia,adult patients,3.4%
same,Grade 3 or 4 weight increased,adult patients,6.9%
same,Fractures,adult patients (N=475),5.3%
same,Median time to fracture,"adults, range: 0.26 months to 18.5 months",3.42 months
same,Ataxia,elderly (65 years or older),23.8%
same,Blood creatinine increased,elderly (65 years or older),31.5%
same,Dizziness,elderly (65 years or older),48.5%
same,Hypotension,elderly (65 years or older),21.5%
same,Bilateral femoral neck fractures,"human, in vivo",2 pediatric patients
same,"Cognitive disorders, Grade 3 events","human, in vivo",4.4%
same,Cognitive symptoms: amnesia,"human, in vivo",2.8%
same,Cognitive symptoms: cognitive disorders,"human, in vivo",6.3%
same,Cognitive symptoms: confusional state,"human, in vivo",7.3%
same,Cognitive symptoms: delirium,"human, in vivo",0.8%
same,Cognitive symptoms: disturbance in attention,"human, in vivo",3.8%
same,Cognitive symptoms: hallucination,"human, in vivo",1.0%
same,Cognitive symptoms: hallucination visual,"human, in vivo",0.4%
same,Cognitive symptoms: memory impairment,"human, in vivo",4.2%
same,Cognitive symptoms: mental disorder,"human, in vivo",0.2%
same,Cognitive symptoms: mental status changes,"human, in vivo",1.2%
same,Discontinuation due to fractures,"human, in vivo",No patients discontinued
same,Eye disorders: diplopia,"human, in vivo",2.6%
same,Eye disorders: vision blurred,"human, in vivo",8.5%
same,Eye disorders: visual impairment,"human, in vivo",1.6%
same,Overall safety profile in elderly patients vs patients younger than 65 years,"human, in vivo",similar
same,Patients recovered from ataxia,"human, in vivo",67.1%
same,Patients recovered from peripheral neuropathy,"human, in vivo",55.7%
same,Patients recovered from the eye disorder events,"human, in vivo",61.7%
same,"Dyspnea, Grade ≥3","human, in vivo, 5.5 months",5.8* %
same,"Lung infection, Grade ≥3","human, in vivo, 5.5 months",6.0* %
same,"Tumor lysis syndrome, Grade ≥3","human, in vivo, 5.5 months",0.2* %
same,Ataxia,[1],12.8%
same,Blood creatinine increased,[1],23.3%
same,Dizziness,[1],36.6%
same,Hypotension,[1],14.7%
same,QTcF interval of ≥500 ms,"patients with at least one post-baseline ECG assessment, 12 patients",2.8%
same,QTcF interval prolongation of >60 ms after starting entrectinib,"patients with at least one post-baseline ECG assessment, 17 patients",4.0%
same,Cognitive disorder events,patients with brain metastases at baseline,29.7%
same,Cognitive disorder events,patients without brain metastases,23.1%
same,Entrectinib interrupted due to fractures,pediatric patients,33.3%
same,Grade 3 or 4 bone fractures,pediatric patients,12.5%
same,Grade 3 or 4 headache,pediatric patients,6.3%
same,Grade 3 or 4 neutropenia,pediatric patients,28.1%
same,Grade 3 or 4 weight increased,pediatric patients,21.9%
same,Fractures,pediatric patients (N=29),20.7%
same,Median time to fracture,"pediatric patients, range: 1.77 months to 7.39 months",3.38 months
same,Disturbance in attention of Grade 1 severity,pediatric population (1/29),3.4%
same,"Eye disorders, median duration",range 0.03 months to 14.49 months,1.02 months
same,"Peripheral sensory neuropathy, median time to onset",range 0.03 months to 20.93 months,0.49 months
same,"Ataxia, median duration",range: 0.03 months to 11.99 months,0.66 months
same,"Eye disorders, median time to onset",range: 0.03 months to 21.59 months,1.87 months
same,"Ataxia, median time to onset",range: 0.03 months to 28.19 months,0.36 months
same,"Peripheral sensory neuropathy, median duration",range: 0.07 months to 6.01 months,0.76 months
